Experimental findings from US20190388381A1, “METHODS OF INHIBITING CISD PROTEIN-PLP COMPLEX FORMATION” (priority 2018, published 2019) are described below.

“Also recorded” adds a separate entry of the source.

The target of assay [1] is T1, mitoNEET (Homo sapiens, UniProt Q9NZ45).
T1 sequence (Q9NZ45 33-108 limits assumed): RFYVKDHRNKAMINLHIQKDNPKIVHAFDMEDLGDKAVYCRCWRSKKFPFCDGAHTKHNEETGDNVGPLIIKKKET
The assay can be described thus: Competitive spectrophotometric assay of mitoNEET⋅PLP complex formation. The format is biochemical. The conditions noted are these: for Effect on mitoNEET⋅PLP complex formation: signal at λ=380 nm (unbound PLP) with increasing compound concentration.

Assay [2] deals with T1, mitoNEET. The assay can be described thus: Thermal shift analysis (SYPRO Orange) of mitoNEET. The format is binding. The conditions noted are these: changing concentrations of nucleotide.
The next assay deals with T2, PLP⋅mitoNEET complex (Homo sapiens, UniProt Q9NZ45).
T2 sequence (Q9NZ45 33-108 limits assumed): T1 sequence (Q9NZ45 33-108 limits assumed)
Put plainly: Reaction of candidate amino acid substrates with the PLP⋅mitoNEET complex, followed by spectrophotometry. The format is biochemical. The conditions noted are these: internal aldimine at λ=410 nm, signal at λ=330 nm, over 5000 sec. From the text:
After PLP binding to the protein, the next step in many PLP-catalyzed enzymatic reactions is the formation of an external aldimine with one of several amino acid substrate such as cysteine, serine, alanine, or aspartate. Subsequently, an amazing diversity of chemistry can occur using this versatile coenzyme including transamination, racemization, and α,β-elimination. L-cysteine was selected as a first candidate substrate considering the previously shown reactivity of mitoNEET cysteine residues in the formation of mixed disulfide bonds. L-cysteine (0.5 mM) was added to the PLP⋅mitoNEET complex and the reaction was followed by spectrophotometry over 5000 sec.

For assay [3], the target named is T1, mitoNEET. Put plainly: Spectroscopic kinetics of modification of mitoNEET by PLP. In kind it is biochemical. The note with it: in contrast to PLP; data not shown. From the text:
The initial discovery was made that CISD proteins bind PLP at a specific lysine residue that is in close proximity to the [2Fe-2S] cluster. PLP modifies the active site lysine residue of PLP-dependent enzymes forming the internal aldimine. In mitoNEET, PLP selectively modifies Lys55. While Lys55 was hypothesized to play a role in the reduction potential and stability of the [2Fe-2S] cluster in mitoNEET, its role as the binding site of PLP is novel to this work. MitoNEET was previously not known or classified as a PLP-dependent enzyme. Referring to FIG. 2, the formation of the mitoNEET⋅PLP and NAF-1⋅PLP complexes can be followed spectroscopically by the accumulation of a signal at λ=435 nm which is consistent with the ketoenamine tautomer and the attenuation of the signal at λ=380 nm which signifies the free PLP molecule. Concurrently with the increase of signal at λ=435 nm, an increase at λ=280 nm is also observed, but the chemical species contributing to this signal is currently unknown. In contrast to PLP, no reactivity of mitoNEET towards the non-phosphorylated pyridoxal (data not shown) was observed. […] An analogous lysine (Lys78) on NAF-1 is the analogous site for that protein.

Assay [4] has as its target T3, mitoNEET (Homo sapiens, UniProt Q9NZ45).
T3 construct: Considering the presence of ten lysine residues in the soluble portion of mitoNEET
T3 sequence (Q9NZ45 32-108 limits assumed): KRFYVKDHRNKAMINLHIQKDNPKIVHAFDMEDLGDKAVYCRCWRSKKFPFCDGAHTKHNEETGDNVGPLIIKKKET
The assay can be described thus: Proteomic analysis of mitoNEET lysine residues modified by PLP. The note with it: 2.0 molar equivalents of PLP, 20 minutes, PBS pH 7.5. In kind it is biochemical. On the procedure: Considering the presence of ten lysine residues in the soluble portion of mitoNEET, non-specific binding of PLP was a concern (PDB code 3EW0). Therefore, mitoNEET was treated with 2.0 molar equivalents of PLP over 20 minutes in phosphate buffered saline (PBS) at pH 7.5 and the reacted protein was analyzed by proteomics. […] Next, the product(s) were degraded by tryptic digest, separated by liquid chromatography, analyzed by tandem mass spectrometry, and the data deconvoluted by proteomic analysis (courtesy of Indiana University Medical School Proteomics Core).

For `Nc1ncnc2c1ncn2[C@@H]1O[C@H](COP(=O)(O)O)[C@@H](O)[C@H]1O` [AMP, adenosine monophosphate], the “Effect on mitoNEET⋅PLP complex formation” value at mitoNEET [1] was “no binding at Lys55; also recorded: does not correspond with an increase in the signal at λ=380 nm”. For the same compound, the “Effect on mitoNEET thermal stability” value on mitoNEET [2] is reported as “do not significantly affect the thermal shift profile”. As to `N[C@@H](CS)C(=O)O` [L-cysteine], the “Reaction with the PLP⋅mitoNEET complex” value at PLP⋅mitoNEET complex is “degradation of the internal aldimine”.

Take `N[C@H](CS)C(=O)O` [D-cysteine]: the “Reaction with the PLP⋅mitoNEET complex” value at PLP⋅mitoNEET complex is “also reacts with the PLP⋅mitoNEET complex (albeit at a slower rate)”.

For `N[C@@H](COP(=O)(O)O)C(=O)O` [L-phosphoserine], at PLP⋅mitoNEET complex, the “Reaction with the PLP⋅mitoNEET complex” value is given as “did not react”. In the case of `Cc1ncc(CO)c(C=O)c1O` [pyridoxal], the “Reactivity of mitoNEET towards compound” value at mitoNEET [3] is listed as “no reactivity”.

Regarding `N[C@@H](CO)C(=O)O` [L-serine], the “Reaction with the PLP⋅mitoNEET complex” value at PLP⋅mitoNEET complex is “did not react”.

With `Cc1ncc(COP(=O)(O)O)c(C=O)c1O` [PLP, pyridoxal-5′-phosphate], at mitoNEET [4], the “Percent Modified, lysine residue position 55” value was found to be 48.1%; the “Percent Modified, lysine residue position 68” value amounted to 7.6%; the “Percent Modified, lysine residue position 79” value was 6.1%; the “Percent Modified, lysine residue position 89” value amounted to 2.5%. The “Percent Modified, lysine residue position 104” value on mitoNEET [4] is given as 1.5%. Turning to `Nc1ncnc2c1ncn2[C@@H]1O[C@H](COP(=O)(O)OP(=O)(O)O)[C@@H](O)[C@H]1O` [ADP, adenosine diphosphate], the “Effect on mitoNEET thermal stability” value on mitoNEET [2] was “do not significantly affect the thermal shift profile”. For `NS(=O)(=O)c1cc(C(=O)O)c(NCc2ccco2)cc1Cl` [furosemide], on mitoNEET [1] (signal at 435 nm, pre-treatment with compound), the “Formation of mitoNEET⋅PLP complex after pre-treatment” value is recorded as “lack of formation of mitoNEET⋅PLP complex”. Besides, the “Effect on mitoNEET⋅PLP complex formation” value at mitoNEET [1] is reported as “competitive binding; also recorded: prohibits the mitoNEET⋅PLP complex formation”; on mitoNEET [1] (listed as Furosemide) it was “block the formation of the mitoNEET⋅PLP complex in a concentration dependent manner”.
